Data published in publication PMC11539218 (Antimicrobial Agents and Chemotherapy, 2024).

Legend:
[1] = test system: Erythrocytes collected from BALB/c mice; assay: Hemolytic activity; format: cell-based; settings: 6.25 to 200 µM, 2 h
Protocol: Erythrocytes collected from BALB/c mice were added to a U-shaped bottom 96-wells microplate at 3% (vol/vol) in phosphate-buffered saline (PBS), treated with compound 1 serially diluted ([…] to 200 µM) in PBS and incubated for 2 h at 24°C. To determine the hemolytic activity, cell supernatants were collected and analyzed in a spectrophotometer (570 nm) ([15]). Bidistilled water was employed as a positive control and untreated erythrocytes as a negative control.

[2] = test system: L. (L.) infantum promastigotes; assay: Mitochondrial membrane electric potential (JC-1, flow cytometry); format: cell-based, Leishmania (L.) infantum; settings: compound 1 169.2 µM, CCCP 10 µM; 2 and 4 h; JC-1 BL-2/BL-1 ratio; vs untreated
Protocol: Promastigotes (2 × 10^6/well) were treated with compound 1 (169.2 µM) for 2 and 4 h, at 24°C. Then, JC-1 (10 µM) was added and the parasites were incubated for 20 min. Fluorescence was measured in a flow cytometer with an excitation wavelength of 488 nm and emission of 530 (BL-1) and 574 nm (BL-2). Mitochondrial membrane potential was established through the ratio of BL-2/BL-1 channels ([19]). Carbonyl cyanide m-chlorophenylhydrazone (CCCP) (10 µM) was employed as positive control and untreated parasites as negative control.

[3] = test system: L. (L.) infantum promastigotes; assay: Acidocalcisomes alkalinization (acridine orange); format: cell-based, Leishmania (L.) infantum; settings: compound 1 169.2 µM, nigericin 4 µM; after 20 min; vs untreated
Protocol: Promastigotes (2 × 10^6/well) were pretreated with acridine orange (4 µM) in PBS, for 5 min at 24°C. The parasites were treated with compound 1 (169.2 µM). Fluorescence was monitored every 20 min up to 4 h in a spectrofluorometer, with excitation and emission wavelengths of 485 and 535 nm, respectively ([22]). Nigericin (4 µM) was employed as positive control and untreated parasites as negative control ([23]).

[4] = test system: Peritoneal macrophages infected with L. (L.) infantum amastigotes; assay: Nitric oxide in infected macrophages (Griess reagent); format: cell-based, BALB/c mice; settings: compound 1 7.5 to 60 µM, LPS 25 µg/mL; 48 h; vs untreated
Protocol: L. (L.) infantum (MHOM/BR/1972/LD) promastigotes were maintained in M199 medium supplemented with 10% FBS and 0.25% hemin, pH 7.2 at 24°C. Amastigotes were isolated from golden hamsters (M. auratus) by differential centrifugation of infected spleens and the parasite’s number was determined according to Stauber ([14]). Peritoneal macrophages were obtained from the peritoneal cavity of BALB/c mice and maintained in RPMI-1640 medium supplemented with 10% FBS, pH 7.2 at 37°C.
Peritoneal macrophages (5 × 10^5/well) were infected with L. (L.) infantum amastigotes (10:1 amastigotes/macrophage) for 24 h, at 37°C with 5% CO2. Later, the cells were treated with compound 1 serially diluted (7.5 to 60 µM), under the same conditions described above. After 48 h, the supernatants were collected and incubated with Griess reagent ([28]). […] LPS (25 µg/mL) was employed as the positive control and untreated cells as the negative control ([29]).

[5] = Stability in plasma under handling and storage conditions (HPLC); format: in vitro ADME
Protocol: (§1) The detection and quantification of compound 1 in the blood matrices were performed after sample processing, using a liquid-liquid extraction methodology. First, 100 µL of plasma was enriched with 10 µL of PI (0.8 µg/mL). Subsequently, 500 µL of hexane was added and the mixture was vortexed for 1 min and centrifuged at 22,082 × g for 5 min. The organic phase was collected in glass tubes and the aqueous phase was subjected to the liquid-liquid extraction procedure again. In the end, the combined organic samples were completely evaporated at 60°C under nitrogen flow and reconstituted in 100 µL of 40:60 ACN:H2O + 0.1% orthophosphoric acid (pH 2.08). Finally, the extracts were centrifuged at 22,082 × g for 2 min and injected into the chromatographic system. Chromatographic analyses by HPLC were performed using a C18 column (Purospher Star LiChroCART, 55 × 4 mm, 3 µm) with gradient elution (Table 1).
Method validation was performed following the guidelines for bioanalytical methods validation of the Food and Drug Administration and European Medicines Agency ([29], [30]). Thus, the acceptance criteria set out in these guides were adopted for the parameters of selectivity, linearity, precision, accuracy, lower limit of quantification (LLOQ), and stability. Quality controls of the lower limit of quantification (QCLOQ—0.03 µg/mL), low (QC1—0.08 µg/mL), medium (QC2—2 µg/mL), and high (QC3—5 µg/mL), were also established in accordance with the guides. […] In addition, stability was established after exposure to different conditions, mimicking storage and handling throughout the experimental process (Table 2).

[6] = In vivo pharmacokinetic study, intraperitoneal; set-up: species or system Wistar rats; settings: 5 mg/kg intraperitoneal; for half-life: 5 mg/kg
Protocol: as §1
Compound 1 (5 mg/kg) was administered (10 mL/kg in saline-sodium-chloride-0.9%) by intraperitoneal route, to six Wistar rats. Blood samples were collected from the caudal vein at 30 min, 1, 2, 3, 5, 6, 8, 12, and 24 h post-dosing. Plasma samples were prepared as described in the previous section and analyzed by HPLC. Concentrations below the LLOQ were considered as zero. Pharmacokinetic profile was obtained using the WinNonlin 6.4 software, determining different parameters, including half-life time (T½); maximum time (Tmax); maximum plasma concentration (Cmax); area under the curve from time zero to the last measurable concentration time (AUC0-t); area under the curve from zero to infinity (AUC0-inf); percentage of area under the curve extrapolated from the last measurable concentration time to infinity (AUCextrap); and meantime of residence (MRT).

[7] = Wistar, rat, plasma, ip, female rats
[8] = Wistar, rat, plasma, ip, male rats
[9] = both sexes, rat, plasma, ip, single dose, Wistar rats, males + females (mean ± SD)

## C=CCc1cc(OC)c(OCc2ccc(OC)cc2)c(Oc2ccc(CN3CCOCC3)cc2OC)c1 [compound 1, 4-(4-(5-allyl-3-methoxy-2-((4-methoxybenzyl)oxy)phenoxy)-3-methoxybenzyl)morpholine]
[1]
  hemolysis: no hemolysis
[2]
  mitochondrial membrane electric potential (ΔΨm): significant depolarization
[3]
  acridine orange fluorescence levels (acidocalcisomes): significantly higher
[4]
  NO levels: remained similar
[5]; 0.08 µg/mL, processed sample, 2 h at room temperature
  Stability/reference analyte concentration (%): 98.35%
[5]; 0.08 µg/mL, processed sample, 24 h at 4°C
  Stability/reference analyte concentration (%): 99.12%
[5]; 0.08 µg/mL, unprocessed sample, 2 h at room temperature
  Stability/reference analyte concentration (%): 86.54%
[5]; 0.08 µg/mL, unprocessed sample, 6 h at 4°C
  Stability/reference analyte concentration (%): 91.74%
[5]; 0.08 µg/mL, unprocessed sample, 24 h at 4°C
  Stability/reference analyte concentration (%): 87.07%
[5]; 0.08 µg/mL, unprocessed sample, 15 days at −20°C
  Stability/reference analyte concentration (%): 85.36%
[5]; 0.08 µg/mL, unprocessed sample, 30 days at −20°C
  Stability/reference analyte concentration (%): 92.66%
[5]; 0.08 µg/mL, unprocessed sample, freezing/thawing
  Stability/reference analyte concentration (%): 88.58%
[5]; 5.00 µg/mL, processed sample, 2 h at room temperature
  Stability/reference analyte concentration (%): 100.43%
[5]; 5.00 µg/mL, processed sample, 24 h at 4°C
  Stability/reference analyte concentration (%): 98.84%
[5]; 5.00 µg/mL, unprocessed sample, 2 h at room temperature
  Stability/reference analyte concentration (%): 90.90%
[5]; 5.00 µg/mL, unprocessed sample, 6 h at 4°C
  Stability/reference analyte concentration (%): 95.92%
[5]; 5.00 µg/mL, unprocessed sample, 24 h at 4°C
  Stability/reference analyte concentration (%): 91.65%
[5]; 5.00 µg/mL, unprocessed sample, 15 days at −20°C
  Stability/reference analyte concentration (%): 90.53%
[5]; 5.00 µg/mL, unprocessed sample, 30 days at −20°C
  Stability/reference analyte concentration (%): 93.24%
[5]; 5.00 µg/mL, unprocessed sample, freezing/thawing
  Stability/reference analyte concentration (%): 97.49%
[6]; single dose, Wistar rats, males + females (mean ± SD)
  T1/2: 21.08 ± 17.72 h
[6]; [7]
  AUC(0-t): 980 ng·h/mL
  Cmax: 200 ng/mL
  MRT: 12.8 h
  Tmax: 0.5 h
[6]; [8]
  AUC(0-t): 650 ng·h/mL
  Cmax: 100 ng/mL
  MRT: 41.1 h
  Tmax: 1.5 h
[6]; both sexes, Wistar, rat, plasma, ip, single dose, Wistar rats, males + females (mean ± SD)
  half-life: 21 h
[6]; [9]
  AUC(0-inf): 1270 ± 340 ng·h/mL
  AUC(0-t): 810 ± 300 ng·h/mL
  Cmax: 150 ± 80 ng/mL
  MRT: 26.9 ± 23.2 h
  Tmax: 1 ± 1.22 h
[6]; female, Wistar, rat, plasma, ip, female rats
  half-life: 10.7 h
[6]; male, Wistar, rat, plasma, ip, male rats
  half-life: 31.4 h
